Laboratory results taken from article PMC12856912, “Structure-Guided Semisynthesis of Blasticidin S–Amicetin Chimeras as Selective Ribosome Inhibitors” (Journal of the American Chemical Society, 2026).
Converted amounts (≈) assume the structure as drawn.

Key:
MRSA ATCC 43300 = assay: Antibacterial MIC assay, serial dilution; format: cell-based, Staphylococcus aureus; conditions: for Selectivity index (CC50/MIC) MRSA 43300: CC50 Vero cells / MIC; for MIC: Staphylococcus aureus, read-out: MIC MRSA ATCC 43300
Method: (§1) Media and solutions were autoclaved or sterile filtered prior to use and mani pulations were carri ed out in a laminar flow hood. Antibacterial t esting was performed in polypropylene 96-well flat bottom plates. The minimal inhibitory concentration of blasticidin S (1) hydrochloride, methyl ester (3) trihydrochloride, P10 (2) tri-T FA , phenet hyl amide (4) tri -T FA , an d blastimidines M 19– 22, A, 29–32, P 37–40, and C 43–46 (salt forms as described in the te xt) were assessed against Staphylococcus aureus ΔNorA, S. aureus ATCC 6538P, methicillin-resistant S. aureus (MRSA) ATCC 43300, Enterococcus faecalis ATCC 29212, vancomycin- resistant Enterococcus, Klebsiella pneumoniae ATCC 29665, Pseudomonas aeruginosa,and Acinetobacter baumannii ATCC 17978 using serial dilutions. Doxycycline (Gold Bio) as a positive control and the vehicle as a negative control. Stock solutions of each compound were prepared at 2.56 mg/mL in 50% DMSO/water and serially diluted in 50% DMSO/water to create master plates. From the master plates, 10 μ L o f each dilution was applied to test plates using a Bravo automated liquid transfer system (Agilent).
(§2) Bacteria previously grown overnight (37 °C, 120–200 RPM), in LB broth were diluted to an OD600 of 0.05 in cation-adjusted Mueller-Hinton broth (CAMHB), grown to an OD600 of ~0.5, and diluted to an OD600 of 0.004 in CAMHB . These diluted cultures were applied to the test plates (190 μL per test well) resulting in final concentrations of the test compounds of 128–1 μg/ m L.
(§3) Growth controls (wells with inoculated media but no vehicle or test compounds) were included to assess any potential toxicity from the vehicle. Th e plates were in cubated at 37 °C for 16–18 h, except fo r VRE and E. faecalis, which w ere in cub ated at 37 °C fo r 24 h. Inh ibition was determined by measuring the optical density at 600 nm (OD60 0) with a Cytation 3 pl ate read er (BioTek). The optical density measurem ents were no rmalized to the positive and negative controls and the vehicle and growth controls were compared and found to b e indistinguishable, indicating no toxicity from […]
(§4) the vehicle used. The MIC was the lowest concentration that inhibited >90% of growth. Two biological replicates were performed in duplicate. MIC values are reported as a range from […]

S. aureus ATCC 6538P = assay: Antibacterial MIC assay, serial dilution; format: cell-based, Staphylococcus aureus; conditions: for Selectivity index (CC50/MIC) S. aureus 6538P: CC50 Vero cells / MIC; for MIC: Staphylococcus aureus, ATCC 6538P / ATCC 6539P, read-out: MIC S. aureus ATCC 6539P
Method: as §1, §2, §3, §4

S. aureus ΔNorA = assay: Antibacterial MIC assay, serial dilution; format: cell-based, Staphylococcus aureus; conditions: for Selectivity index (CC50/MIC) S. aureus ΔNorA: CC50 Vero cells / MIC; for MIC: Staphylococcus aureus, read-out: MIC S. aureus ∆NorA
Method: as §1, §2, §3, §4

[1] = tested on: Methicillin resistant Staphylococcus epidermidis (MRSE) ATCC 35984 NRS101; assay: Antibacterial MIC assay, serial dilution; format: cell-based; conditions: for Selectivity index (CC50/MIC) MRSE 35984: CC50 Vero cells / MIC; for MIC: Staphylococcus epidermidis, read-out: MIC Methicillin resistant Staphylococcus epidermidis (MRSE) ATCC 35984 NRS101
[2] = tested on: Methicillin resistant S. aureus (MRSA) USA300; assay: Antibacterial MIC assay, serial dilution; format: cell-based, Staphylococcus aureus; conditions: for Selectivity index (CC50/MIC) MRSA USA300: CC50 Vero cells / MIC; for MIC: Staphylococcus aureus, read-out: MIC Methicillin resistant S. aureus (MRSA) USA300
[3] = tested on: Vancomycin resistant E. faecalis NR-31972 (VRE); assay: Antibacterial MIC assay, serial dilution; format: cell-based, Enterococcus faecalis; conditions: for Selectivity index (CC50/MIC) VRE NR-31972: CC50 Vero cells / MIC; for MIC: Enterococcus faecalis, VRE, 24 h, read-out: MIC Vancomycin resistant E. faecalis NR-31972 (VRE)
Method: as §1, §2, §3, §4

[4] = tested on: Acinetobacter baumannii ATCC 17978; assay: Antibacterial MIC assay, serial dilution; format: cell-based; conditions: ATCC17978, range from biological replicates
Method: as §1, §2, §3, §4

[5] = tested on: Enterococcus faecalis ATCC 29212; assay: Antibacterial MIC assay, serial dilution; format: cell-based; conditions: for Selectivity index (CC50/MIC) E. faecalis 29212: CC50 Vero cells / MIC; for MIC: Enterococcus faecalis, ATCC 29112 / ATCC 29212, 24 h, read-out: MIC E. faecalis ATCC 29112
Method: as §1, §2, §3, §4

[6] = tested on: Klebsiella pneumoniae ATCC 29665; assay: Antibacterial MIC assay, serial dilution; format: cell-based; conditions: for MIC: Klebsiella pneumoniae, ATCC29665, range from biological replicates, read-out: MIC K. pneumoniae ATCC-29665
Method: as §1, §2, §3, §4

Pseudomonas aeruginosa = assay: Antibacterial MIC assay, serial dilution; format: cell-based; conditions: for Selectivity index (CC50/MIC) P. aeruginosa: CC50 Vero cells / MIC; for MIC: Pseudomonas aeruginosa, range from biological replicates, read-out: MIC P. aeruginosa
Method: as §1, §2, §3, §4

[7] = tested on: Vancomycin resistant Enterococcus faecium NR-31909 (VRE); assay: Antibacterial MIC assay, serial dilution; format: cell-based; conditions: for Selectivity index (CC50/MIC) VRE NR-31909: CC50 Vero cells / MIC; for MIC: Enterococcus faecium, VRE, 24 h, read-out: MIC Vancomycin resistant Enterococcus faecium NR-31909 (VRE)
Method: as §1, §2, §3, §4

[8] = tested on: Escherichia coli BAA-2452; assay: Antibacterial MIC assay, serial dilution; format: cell-based; conditions: BAA2452, read-out: MIC Escherichia coli BAA-2452
[9] = Cytotoxicity assay (MTS/PMS); format: cell-based; conditions: monkey, Vero cells (monkey kidney epithelial cells); 24 h treatment, MTS/PMS, average of three biological replicates; read-out: CC50 against Vero cells
Method: (§5) The potential cytotoxic eff ect of the test compounds was investigated using Vero cells (monkey kidney epitheli al cells) following est ablished protocols.3 Briefly, Vero cells were plated into 96-well plates supplemented with Dulbecco's Modified Eagle Medium (DMEM) containing 10% fetal bovine serum (FBS). The cells were placed in a humidified 37 °C environment for incubation with 5% CO₂ for 24 h to allow proper adherence and growth. Following the incubation period, the culture medium was replaced with fresh DMEM containing serial dilutions of the test compounds, while the v ehicle alon e w as used as a negative control. The treated cells were incubated for an additional 24 h. To assess cell viability, the MTS/PMS reagent was added to each well and incubat ed for 4 h. A microplate reader (S ynergy H1, BioTek, USA) was used to m easure absorbance at 490 nm. Al l experiments wer e cond ucted usingthree biologi cal replicates .
(§6) Ta b l e S2. CC50 valuesa (µg/mL) against Vero cells […]
(§7) aValues at which the cell viability (normalized to vehicle control) was 50%. […]

Vero cells = assay: Cytotoxicity assay (MTS/PMS); format: cell-based; conditions: Vero cells, chimera vs parent of its series
Method: as §5, §6, §7

Row | Structure (SMILES) | Selectivity index (CC50/MIC) MRSA 43300 (MRSA ATCC 43300) | MIC (MRSA ATCC 43300) [µg/mL] | Selectivity index (CC50/MIC) S. aureus 6538P (S. aureus ATCC 6538P) | MIC (S. aureus ATCC 6538P) [µg/mL] | Selectivity index (CC50/MIC) S. aureus ΔNorA (S. aureus ΔNorA) | MIC (S. aureus ΔNorA) [µg/mL] | Selectivity index (CC50/MIC) MRSE 35984 [1] | MIC [1] [µg/mL] | Selectivity index (CC50/MIC) MRSA USA300 [2] | MIC [2] [µg/mL] | Selectivity index (CC50/MIC) VRE NR-31972 [3] | MIC [3] [µg/mL] | MIC [4] [µg/mL] | Selectivity index (CC50/MIC) E. faecalis 29212 [5] | MIC [5] [µg/mL] | MIC [6] [µg/mL] | Selectivity index (CC50/MIC) P. aeruginosa (Pseudomonas aeruginosa) | MIC (Pseudomonas aeruginosa) [µg/mL] | MIC [7] [µg/mL] | MIC [8] [µg/mL] | also measured
1 | CN(CC[C@H](N)CC(=O)N[C@H]1C=C[C@H](n2ccc(NC(=O)c3ccc(NC(=O)[C@@](C)(N)CO)cc3)nc2=O)O[C@@H]1C(N)=O)C(=N)N [Blastimidine A5] | 0.5 | 128 (≈ 199 µM) | 1.0 | 64 (≈ 99.7 µM) | 0.5 | 128 (≈ 199 µM) | 0.5 | 128 (≈ 199 µM) | 0.5 | 128 (≈ 199 µM) | <0.5 | > 128 | > 128 | 1.0 | 64 (≈ 99.7 µM) | 32 (≈ 49.9 µM) | <0.5 | > 128 | 32 (≈ 49.9 µM) | 32 (≈ 49.9 µM) | Selectivity index (CC50/MIC) K. pneumoniae ([6]; CC50 Vero cells / MIC): 2.0; Selectivity index (CC50/MIC) VRE NR-31909 [7]: 2.0; CC50 at 24 h [9]: 65 µg/mL (≈ 101 µM)
2 | CC(=O)Nc1ccc(C(=O)Nc2ccn([C@H]3C=C[C@H](NC(=O)C[C@@H](N)CCN(C)C(=N)N)[C@@H](C(=O)O)O3)c(=O)n2)cc1 [Blastimidine C4] | <1.6 | > 128 | <1.6 | > 128 | <1.6 | > 128 | <1.6 | > 128 | <1.6 | > 128 | <1.6 | > 128 | > 128 | <1.6 | > 128 | 128 (≈ 219 µM) | <1.6 | > 128 | > 128 | > 128 | CC50 at 24 h [9]: 203 µg/mL (≈ 348 µM); fold lower cytotoxicity relative to parent molecule (Vero cells): > 10 fold
3 | CN(CC[C@H](N)CC(=O)N[C@H]1C=C[C@H](n2ccc(NC(=O)c3ccc(N)cc3)nc2=O)O[C@@H]1C(=O)NCCc1ccccc1)C(=N)N [Blastimidine P2] | >4.0 | 64 (≈ 99.3 µM) | >12 | 16 to 32 (≈ 24.8 to 49.6 µM) | >32 | 8 (≈ 12.4 µM) | >16 | 16 (≈ 24.8 µM) | >8.0 | 32 (≈ 49.6 µM) | >16 | 16 (≈ 24.8 µM) | > 128 | >32 | 8 (≈ 12.4 µM) | > 128 | >2.0 | 128 (≈ 199 µM) | 128 (≈ 199 µM) | 128 (≈ 199 µM) | Selectivity index (CC50/MIC) VRE NR-31909 [7]: >2.0; CC50 at 24 h [9]: > 256 µg/mL
4 | CC(=O)Nc1ccc(C(=O)Nc2ccn([C@H]3C=C[C@H](NC(=O)C[C@@H](N)CCN(C)C(=N)N)[C@@H](C(=O)NCCc4ccccc4)O3)c(=O)n2)cc1 [Blastimidine P4] | >2.0 | 128 (≈ 186 µM) | >8.0 | 32 (≈ 46.6 µM) | >24 | 8 to 16 (≈ 11.6 to 23.3 µM) | >16 | 16 (≈ 23.3 µM) | >4.0 | 64 (≈ 93.2 µM) | >8.0 | 32 (≈ 46.6 µM) | > 128 | >8.0 | 32 (≈ 46.6 µM) | > 128 | >2.0 | 128 (≈ 186 µM) | > 128 | > 128 | CC50 at 24 h [9]: > 256 µg/mL
